Laboratory results from patent publication US12414994B2, “Compositions comprising lopinavir and treatment of conditions” (DOUGLAS PHARMACEUTICALS LIMITED, priority 2019, dated 2025).
Like-named read-outs stand apart in the source and are kept apart here.

What was measured:
HSV2 strain HG52 = test: HSV2 replication assay in N-Tert keratinocytes (anti-HSV immunostaining); assay type: cell-based; conditions: for effect against HSV2 replication: FIG. 2B
Method: (§1) Cell Culture; Telomerase immortalised N-Tert human foreskin Keratinocyes were maintained in standard T-75 tissue culture flasks (Corning, USA) in 25 ml of Keratinocyte serum-free medium (KSFM) supplemented with L-glutamine, 0.2 ng/ml epidermal growth factors (EGF) and 25 μg/mL bovine pituitary extract (BPE) (Gibco, Invitrogen, UK). These were maintained at 37° C. in a humidified atmosphere of 5% CO2 and the medium was changed every 2 days as required. For routine sub-culture the medium was aspirated, cells washed with PBS (Gibco-Invitrogen, UK) and 2 ml of Cell Culture Grade Trypsin 0.05% solution with EDTA (Gibco-Invitrogen, UK) added to each flask which was incubated at 37° C./5% CO2 for 10 minutes. A 10 ml aliquot of KSFM plus 10% foetal bovine serum (FBS) (Gibco-Invitrogen, UK) was then added and the cells centrifuged at 6000 g for 6 minutes. The medium was aspirated and cells washed with 10 mls of PBS (Gibco Invitrogen, UK) followed by re-suspension in 10 mls of fresh KSFM and final a cell count carried out. HSV1 & 2 Replication Assays; T25 flasks (Corning, USA) were each seeded with 600,000 N-Tert cells in serum-free KSFM plus supplements and incubated at 37° C./5% CO2 until confluent (Approximately 72 hours). The medium was then aspirated and cells infected with either 25 μl aliquot of HSV2 strain HG52, 1 μl of HSV1 strain 17+ or a 5 μl aliquot of the acyclovir resistant HSV2 strain 132349 ACV-res (Public Health England, Porton Down, UK) in 0.5 ml of serum-free KSFM plus supplements for a period of 2 hours at 37° C./5% CO2. The volume of each HSV strain stock used was empirically determined as the amount required to produce pronounced cytopathic changes in infected control flasks over the time course of the experiment. A 9.5 ml aliquot of KSFM plus supplements was then added to each flask and cells infected with the HG52 or 17+ strains incubated overnight whereas cell infected with the 132349 ACV-res strain were incubated for 5 hours at 37° C./5% CO2. Stock solutions of each active pharmaceutical ingredient (API) were freshly prepared every week from dry powder (Douglas Pharna, NZ) dissolved volumetrically in DMSO at 100 mM and stored at −20° C. Appropriate final dilutions of these API stocks solutions were made in KSFM plus supplements such that the same volume of DMSO (2 μl) was added to each infected flask. Where mixed APIs were used, concentrations were calculated as w/w ratios. API treated HSV2 HG52 infected cells were then incubated for 48 hours, HSV1 17+ infected cells were incubated for 8 hours and HSV-2 132349 ACV-res infected cells were incubated for 12 hours prior to harvesting for immunostaining. A concentration of 5 μM Acyclovir (VWR International, UK) was also added as a comparator to flasks infected with HSV-2 132349 ACV-res in order to verify the acyclovir resistant nature of the strain. […] Harvesting & Immunostaining; Growth medium was decanted from each flask and placed into 15 ml universal tubes (Corning, USA) and the cells rinsed with 1 ml of 1×PBS which was pooled with the growth medium. A 1 ml aliquot of NB Cell Culture Grade Trypsin 0.05% solution with EDTA was added to each T-25 flask and cells incubated at 37° C./5% CO2 for 10 minutes. A 1 ml aliquot of FBS was added to the decanted growth medium plus PBS from the previous step and 2 ml of this was then added to each flask to inactivate the trypsin. The trypsinised cells were then pooled with the decanted growth medium and an aliquot taken for analysis of cell viability using Via-1 cassette NC3000 cell cytometer assays (CheoMetec A/S, Denmark). The remaining cells were centrifuged at 6000 g for 5 minutes, the medium aspirated and the cells re-suspended and washed with 10 ml of PBS followed by re-centrifugation. Finally the cells were re-suspended in 70% of ice-cold ethanol, stored overnight at 4° C. and a volume containing 60,000 cells was aliquoted into 1.5 ml Eppendorf tubes and centrifuged for 5 minutes at 5000 rpm. […]

HSV1 strain 17+ = test: HSV1 replication assay in N-Tert keratinocytes (anti-HSV immunostaining); assay type: cell-based; conditions: for effects on HSV1 replication: FIG. 4B; for effect on HSV1 replication: pre-treatment virus incubation reduced by 2 hours, FIG. 5B
Method: as §1, with “trypsin.” for “trypsin. The trypsinised cells were then pooled with the decanted growth medium and an aliquot taken for analysis of cell viability using Via-1 cassette NC3000 cell cytometer assays (CheoMetec A/S, Denmark). The remaining cells were centrifuged at 6000 g for 5 minutes, the medium aspirated and the cells re-suspended and washed with 10 ml of PBS followed by re-centrifugation. Finally the cells were re-suspended in 70% of ice-cold ethanol, stored overnight at 4° C. and a volume containing 60,000 cells was aliquoted into 1.5 ml Eppendorf tubes and centrifuged for 5 minutes at 5000 rpm.”

[1] = test system: uninfected N-Tert keratinocytes; test: Cytotoxicity assay (Via-1 cassette viability); assay type: cell-based; conditions: human, 48 h
Method: (§2) Cell Culture; Telomerase immortalised N-Tert human foreskin Keratinocyes were maintained in standard T-75 tissue culture flasks (Corning, USA) in 25 ml of Keratinocyte serum-free medium (KSFM) supplemented with L-glutamine, 0.2 ng/ml epidermal growth factors (EGF) and 25 μg/mL bovine pituitary extract (BPE) (Gibco, Invitrogen, UK). These were maintained at 37° C. in a humidified atmosphere of 5% CO2 and the medium was changed every 2 days as required. For routine sub-culture the medium was aspirated, cells washed with PBS (Gibco-Invitrogen, UK) and 2 ml of Cell Culture Grade Trypsin 0.05% solution with EDTA (Gibco-Invitrogen, UK) added to each flask which was incubated at 37° C./5% CO2 for 10 minutes. A 10 ml aliquot of KSFM plus 10% foetal bovine serum (FBS) (Gibco-Invitrogen, UK) was then added and the cells centrifuged at 6000 g for 6 minutes. The medium was aspirated and cells washed with 10 mls of PBS (Gibco Invitrogen, UK) followed by re-suspension in 10 mls of fresh KSFM and final a cell count carried out. HSV1 & 2 Replication Assays; T25 flasks (Corning, USA) were each seeded with 600,000 N-Tert cells in serum-free KSFM plus supplements and incubated at 37° C./5% CO2 until confluent (Approximately 72 hours). The medium was then aspirated and cells infected with either 25 μl aliquot of HSV2 strain HG52, 1 μl of HSV1 strain 17+ or a 5 μl aliquot of the acyclovir resistant HSV2 strain 132349 ACV-res (Public Health England, Porton Down, UK) in 0.5 ml of serum-free KSFM plus supplements for a period of 2 hours at 37° C./5% CO2. The volume of each HSV strain stock used was empirically determined as the amount required to produce pronounced cytopathic changes in infected control flasks over the time course of the experiment. A 9.5 ml aliquot of KSFM plus supplements was then added to each flask and cells infected with the HG52 or 17+ strains incubated overnight whereas cell infected with the 132349 ACV-res strain were incubated for 5 hours at 37° C./5% CO2. […] Where mixed APIs were used, concentrations were calculated as w/w ratios. […]

herpesvirus = conditions: Gantt et al. (2011) Table 1; cited from earlier work
[2] = test system: acyclovir resistant HSV2 strain 132349 ACV-res; test: Acyclovir resistant HSV2 replication assay in N-Tert keratinocytes; assay type: cell-based
Method: as §2

[3] = cited from earlier work
[4] = test system: labial or skin HSV lesions; conditions: episodic topical application, cited from earlier work
HSV-2 132349 ACV-res = conditions: Houston et al (2017) Table 2; cited from earlier work
HSV1 17+ strain = conditions: Houston et al (2017) Table 2; cited from earlier work

With Cc1c(O)cccc1C(=O)N[C@@H](CSc1ccccc1)[C@H](O)CN1C[C@H]2CCCC[C@H]2C[C@H]1C(=O)NC(C)(C)C [nelfinavir] the “effect against HSV2 replication” value (HSV2 strain HG52; 2 μM) was “less effective against HSV2 replication than 10 μM nelfinavir”, the “effect against HSV2 replication” value (HSV2 strain HG52; 5 μM) was “less effective against HSV2 replication than 10 μM nelfinavir” and the “effect against HSV2 replication” value (HSV2 strain HG52; 10 μM) was “as effective as 20 μM 12:1 Lop/Rit”. For the same compound, the “effects on HSV1 replication” value (HSV1 strain 17+; 2 μM) was “very modest effects”, the “effect on HSV1 replication” value (HSV1 strain 17+; 2 μM) was “no discernible effect” and the “effects on HSV1 replication” value (HSV1 strain 17+; 10 μM) was “very modest effects”. For the same compound, the “effect on HSV1 replication” value (HSV1 strain 17+; 10 μM) was “no discernible effect”, the “concentrations with significant toxic effects on eukaryotic cells” value [1] was “above 2 μM” and the cell viability ([1]; 10 μM) was less than 60%. For the same compound, the cell viability ([1]; 20 μM) was “about 40%” and the “effect on herpesvirus replication” value (herpesvirus) was “inhibitory effect on viruses”.

In the case of Cc1cccc(C)c1OCC(=O)N[C@@H](Cc1ccccc1)[C@@H](O)C[C@H](Cc1ccccc1)NC(=O)[C@H](C(C)C)N1CCCNC1=O (relative stereo) [lopinavir, [1S-[1R*(R*), 3R*, 4R*]]-N-[4-[(2,6-dimethylphenoxy0acetyl]amino]-3-hydroxy-5-phenyl-1-(phenylmethyl)pentyl]tetrahydro-alpha-(1-methylethyl)-2-oxo-1(2H)-pyrimidineacetamide], the “effect against HSV2 replication compared with nelfinavir” value (HSV2 strain HG52; 20 μM) was “more effective against HSV2 replication than either 2 or 5 μM nelfinavir”, the “HSV2 positive cells (anti-HSV antibody immunostaining images)” value (HSV2 strain HG52; 20 μM, 48 hours, FIG. 1B) was “Very few HSV2 positive cells” and the “cytopathic effects of HSV2 infection (phase contrast morphology)” value (HSV2 strain HG52; 20 μM, 48 hours, N-Tert keratinocytes, FIG. 1A) was “virtually no cytopathic effects”. For the same compound, the “percentage of virus positive cells (quantitative analysis of immune staining)” value (HSV2 strain HG52; 20 μM, FIG. 1C) was “marked reduction”, the “effect on HSV1 replication” value (HSV1 strain 17+; 20 μM) was “by far the greatest activity” and the “number of virus positive cells” value ([2]; 10 μM, FIG. 6B (DMSO control 50%)) was 10%. For the same compound, the “number of virus positive cells” value ([2]; 20 μM, FIG. 6B (DMSO control 50%)) was 5%, the “effect on herpesvirus replication” value (herpesvirus) was “ineffective” and the solubility in water [3] was “virtually insoluble in water”.

In the case of Nc1nc2c(ncn2CCC(CO)CO)c(=O)[nH]1 [penciclovir], the “improvement of healing times” value ([4]; 1% penciclovir cream) is given as “approximately 10%”.

For CC(C)c1nc(CN(C)C(=O)N[C@H](C(=O)N[C@@H](Cc2ccccc2)C[C@H](O)[C@H](Cc2ccccc2)NC(=O)OCc2cncs2)C(C)C)cs1 (relative stereo) [ritonavir, 10-Hydroxy-2-methyl-5-(1-methylethyl)-1-[2-(1-methylethyl)-4-thiazolyl]-3,6-dioxo-8,11bis(phenylmethyl)-2,4,7,12-tetraazatridecan-13-oic acid, 5-thiazolylmethylester, [5S-(5R*,8R*,10R8,11R*)]], the “effect on herpesvirus replication” value (herpesvirus) is given as “ineffective”.

In the case of Nc1nc2c(ncn2COCCO)c(=O)[nH]1 [Acyclovir, acyclovir], the “number of virus positive cells” value ([2]; Acyclovir, FIG. 6B) is given as “did not, as expected reduce the number of virus positive cells”, the “concentration required for toxicity against this strain” value (HSV-2 132349 ACV-res) is given as greater than 100 µM and the “concentration that proved very effective” value (HSV1 17+ strain) is given as less than 0.8 µM. For the same compound, the “improvement of healing times” value ([4]; 3-5% acyclovir cream) was “approximately 10%”.
